From US6569878B1, “Substituted 4-amino-thiazol-2-yl compounds as cyclin-dependent kinase inhibitors” (Agouron Pharmaceuticals Inc., priority 1997, dated 2003)
Structures can show the parent of a compound that is named as a salt.

What was measured:
[1] = tested on: HCT116; assay: Inhibition of cell growth, MTT assay, HCT116; format: cell-based, human; conditions: Homo sapiens, HCT-116
Summary of the method: (§1)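 Cells rested 4 h after plating, then exposed to graded compound concentrations in 0.5% (v/v) DMSO for four to six days (cell-type dependent) at 37° C, 5% CO2. Viability was read by MTT (0.2 mg/mL final, 4 h at 37° C), with DMSO-solubilized formazan measured at 540 nm.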

[2] = target: T1, human CDK1 (cdc2) and cyclin B (Homo sapiens, UniProt P06493); assay: Inhibition of CDK1(cdc2)/cyclin B histone H1 kinase activity; format: biochemical; conditions: read-out: Ki CDK 1/B
T1 construct: purchased New England Biolabs (Beverly Mass.)
Summary of the method: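 CDK1/cyclin B (commercial, or CDK1/GST-cyclin B1 from co-infected insect cells) phosphorylated histone H1 with 25 μM [32/33P]ATP at pH 7.4, 30° C for 20 min, 2% DMSO. Product captured on phosphocellulose and read by phosphorimager; apparent Ki from competitive or tight-binding fits, with Km for ATP determined.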

[3] = tested on: M14 melanoma; assay: Inhibition of cell growth, MTT assay, M14 melanoma; format: cell-based; conditions: Homo sapiens
Procedure: (§2) The water-insoluble purple formazan product was then detected spectrophotometrically. […] Plates were incubated for four hours before addition of inhibitor compounds. Different concentrations of inhibitor compounds were added in 0.5% (v/v) dimethylsulfoxide (15 μL/well), and cells were incubated at 37° C. (5% CO2) for four to six days (depending on cell type). At the end of the incubation, MTT was added to a final concentration of 0.2 mg/mL, and cells were incubated for 4 hours more at 37° C. After centrifugation of the plates and removal of medium, the absorbance of the formazan (solubilized in dimethylsulfoxide) was measured at 540 nm.

[4] = target: T2, CDK2/cyclin A (Homo sapiens, UniProt P24941); assay: Inhibition of CDK2/cyclin A retinoblastoma kinase activity; format: biochemical; conditions: read-out: Ki CDK 2/A
T2 construct: made in house; host or cells: CDK2: insect cells (baculovirus); cyclin A: E. coli, then limited proteolysis
Summary of the method: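 Baculovirus-expressed CDK2 with excess proteolyzed cyclin A (or purified complex), 150 nM or 5 nM, phosphorylating an Rb fragment with 25 μM [32/33P]ATP, pH 7.4, 30° C, 20 min. Filter-captured radioactivity by phosphorimager; apparent Ki from fits to competitive or tight-binding competitive inhibition using measured ATP Km.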

[5] = tested on: U2-OS; assay: Inhibition of cell growth, MTT assay, U2-OS; format: cell-based; conditions: Homo sapiens, U2OS
Summary of the method: as §1

[6] = tested on: pRb phosphorylation at serine 780 in HCT-116 cells; assay: pRb immunoblotting (anti-phospho-Rb (ser780) antibody); format: cell-based, human; conditions: five micromolar of each compound for 12 hours, western blot, anti-phospho-Rb (Ser 780) antibody
Procedure: (§3) The ability of compounds to inhibit phosphorylation of the retinoblastoma protein (pRb) was assessed by western blot analysis. An anti-Rb antibody was used to measure the conversion of hyper-phosphorylated pRb to hypo-phosphorylated pRb.
(§4) Human colon tumor cells (HCT-116 cells; 5×10^6) were plated on […] dishes and allowed to grow overnight. Five micromolar of each compound was added for 12 hours. The cells were then collected and centrifuged. The cell pellets were lysed by the addition of 100 μL lysis buffer (50 mM HEPES (pH 7.0), 250 mM NaCl, 5 mM ethylenediaminetetraacetic acid, 0.1% Nonidet P-40, 1 mM dithiothreitol, 2 mM sodium pyrophosphate, 1 mM sodium orthovanadate, 1 μg/ml aprotonin, 1 μg/ml leupeptin, 50 μg/ml phenylmethylsulfonyl fluoride). Forty micrograms of protein were separated by sodium dodecyl sulfate-polyacrylamide gel electrophoresis (SDS-PAGE) on a 6% gel. The proteins were transferred to nitrocellulose and blocked with 5% blocking buffer in Tris-buffered saline overnight. The anti-Rb antibody (Pharmingen), the anti-phospho-Rb (Ser 780) antibody (MBL), and secondary antibody were incubated for 1 hour at room temperature followed by three wash steps in 0.01% Tween-20 in Tris-buffered saline. The Rb protein was detected using chemiluminescence according to the manufacturer (Amersham).

[7] = tested on: phosphorylation of the retinoblastoma protein (pRb) in HCT-116 cells; assay: pRb immunoblotting (anti-Rb antibody); format: cell-based, human; conditions: five micromolar of each compound for 12 hours, western blot
Procedure: as §3, §4

[8] = tested on: RXF-393; assay: Inhibition of cell growth, MTT assay, RXF-393; format: cell-based; conditions: Homo sapiens; RXF-393, MTT assay
Procedure: as §2

[9] = tested on: Saos-2; assay: Inhibition of cell growth, MTT assay, Saos-2; format: cell-based; conditions: Homo sapiens; Saos-2, MTT assay
Summary of the method: as §1

[10] = target: T3, complex of human CDK4 and cyclin D3 (Homo sapiens, UniProt P11802); assay: Inhibition of CDK4/cyclin D retinoblastoma kinase activity (D-type cyclin is D3); format: biochemical; conditions: superscript a: D-type cyclin is D3; apparent Ki; read-out: Ki CDK 4/D
T3 construct: made in house; host or cells: insect cells, co-infected with baculovirus
Summary of the method: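 Apparent Ki derived by fitting background-corrected activity to competitive (or, for tight binders, competitive tight-binding) equations with measured ATP Km. Rb phosphorylation by radiolabelled ATP was measured at 30°C, 20 min standard or 60 min at 5 nM complex for tight binders, via nitrocellulose capture and phosphorimager.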

[11] = tested on: COLO-205; assay: Inhibition of cell growth, MTT assay, COLO-205; format: cell-based; conditions: Homo sapiens; COLO-205, MTT assay
Procedure: as §2

[12] = tested on: MDA-MB-468; assay: Inhibition of cell growth, MTT assay, MDA-MB-468; format: cell-based; conditions: Homo sapiens; MDA-MB-468, MTT assay
Procedure: as §2

[13] = tested on: MCF-7; assay: Inhibition of cell growth, MTT assay, MCF-7; format: cell-based; conditions: MCF-7, MTT assay; for IC50 / IC90: Homo sapiens, MCF7; for % inhibition of growth in parentheses after >25: concentration not given
Procedure: as §2

T3 sequence (P11802 whole entry): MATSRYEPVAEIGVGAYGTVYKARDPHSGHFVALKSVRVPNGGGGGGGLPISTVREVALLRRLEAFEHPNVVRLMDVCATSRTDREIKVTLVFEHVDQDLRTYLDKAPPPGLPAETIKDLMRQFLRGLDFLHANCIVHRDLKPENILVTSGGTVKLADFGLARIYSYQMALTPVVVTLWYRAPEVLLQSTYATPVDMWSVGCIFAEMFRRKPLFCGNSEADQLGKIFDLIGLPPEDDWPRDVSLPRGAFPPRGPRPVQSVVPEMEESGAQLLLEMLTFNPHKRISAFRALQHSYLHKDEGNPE
T3 sequence (P30281 whole entry partner): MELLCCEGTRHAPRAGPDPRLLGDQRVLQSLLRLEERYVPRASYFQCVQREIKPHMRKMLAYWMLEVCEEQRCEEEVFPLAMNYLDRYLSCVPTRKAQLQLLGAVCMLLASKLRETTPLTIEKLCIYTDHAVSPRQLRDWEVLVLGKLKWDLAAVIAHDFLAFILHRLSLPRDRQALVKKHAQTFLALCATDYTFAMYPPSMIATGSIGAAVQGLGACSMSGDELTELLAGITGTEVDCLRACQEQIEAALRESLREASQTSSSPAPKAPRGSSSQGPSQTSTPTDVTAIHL
T1 sequence (P06493 whole entry): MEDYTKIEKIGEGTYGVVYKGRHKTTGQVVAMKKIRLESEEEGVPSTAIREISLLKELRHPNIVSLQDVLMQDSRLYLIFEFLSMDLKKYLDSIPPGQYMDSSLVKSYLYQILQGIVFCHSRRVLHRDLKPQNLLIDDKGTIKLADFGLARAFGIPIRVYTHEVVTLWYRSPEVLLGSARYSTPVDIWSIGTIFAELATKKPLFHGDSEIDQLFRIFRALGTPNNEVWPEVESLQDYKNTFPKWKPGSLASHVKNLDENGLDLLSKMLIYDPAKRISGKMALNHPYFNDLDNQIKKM
T1 sequence (P14635 whole entry partner): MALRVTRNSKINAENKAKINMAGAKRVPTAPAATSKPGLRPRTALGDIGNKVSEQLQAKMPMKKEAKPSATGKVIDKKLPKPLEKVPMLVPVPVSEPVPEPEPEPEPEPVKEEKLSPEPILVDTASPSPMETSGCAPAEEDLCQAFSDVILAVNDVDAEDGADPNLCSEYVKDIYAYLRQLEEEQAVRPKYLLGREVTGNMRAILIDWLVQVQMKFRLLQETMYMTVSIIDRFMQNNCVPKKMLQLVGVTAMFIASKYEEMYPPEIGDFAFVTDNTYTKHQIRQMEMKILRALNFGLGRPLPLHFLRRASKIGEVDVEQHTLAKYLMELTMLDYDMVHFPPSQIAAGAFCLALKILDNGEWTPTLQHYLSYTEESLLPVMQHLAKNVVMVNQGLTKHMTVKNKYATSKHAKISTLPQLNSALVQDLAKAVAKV

Structure (SMILES)	IC50 [1]	IC90 [1]	Ki [2]	IC50 [3]	IC90 [3]	Ki [4]	IC50 [5]	IC90 [5]	Inhibits pRb (ser 780) phosphorylation [6]	Inhibits pRb phosphorylation [7]	IC50 [8]	IC90 [8]	IC50 [9]	IC90 [9]	Ki [10]	IC50 [11]	IC90 [11]	IC50 [12]	IC90 [12]	IC50 [13]	other results
Cc1ccsc1C(=O)c1sc(Nc2ccc(N3CCNCC3)cc2)nc1N [H(1), [4-Amino-2-(4-piperazin-1-yl-phenylamino)-thiazol-5-yl]-(3-methyl-thiophen-2-yl)-methanone Trihydrochloride]	580 nM	1400 nM	681 nM	2400 nM	9000 nM	370 nM	850 nM	1500 nM	+	+	460 nM	880 nM	730 nM	1400 nM	8.2 nM	200 nM	600 nM	–	–	–	–
Cc1ccsc1C(=O)c1sc(Nc2ccc(S(N)(=O)=O)cc2)nc1N [C(48), 4-[4-Amino-5-(3-methyl-thiophene-2-carbonyl)-thiazol-2-ylamino]-benzenesulfonamide]	–	700 nM	15 nM	600 nM	1800 nM	11.1 nM	1000 nM	1500 nM	+	+	800 nM	1600 nM	420 nM	750 nM	14 nM	290 nM	600 nM	260 nM	600 nM	2600 nM	IC90 [13]: > 25000 nM; % inhibition of growth in parentheses after >25 [13]: (82%)
Cc1ccsc1C(=O)c1sc(Nc2ccc(N3CCN(C)CC3)cc2)nc1N [C(87), {4-Amino-2-[4-(4-methyl-piperazin-1-yl)-phenylamino]-thiazol-5-yl}-3-methyl-thiophen-2-yl-methanone]	950 nM	2900 nM	826 nM	1500 nM	4200 nM	607 nM	1800 nM	4000 nM	+	+	1500 nM	2300 nM	2000 nM	4000 nM	9 nM	390 nM	1700 nM	–	–	–	–
Cc1cc(C(=O)c2sc(Nc3ccc(S(N)(=O)=O)cc3)nc2N)c(C)s1 [C(50), 4-[4-Amino-5-(2,5-dimethyl-thiophene-3-carbonyl)-thiazol-2-ylamino]-benzenesulfonamide]	610 nM	1600 nM	29 nM	–	–	5.6 nM	2000 nM	3000 nM	+	+	–	–	1300 nM	2800 nM	25.5 nM	–	–	480 nM	1500 nM	3000 nM	IC90 [13]: > 25000 nM; % inhibition of growth in parentheses after >25 [13]: (88%)
Nc1nc(Nc2ccc(S(N)(=O)=O)cc2)sc1C(=O)c1c(F)cccc1F [C(85), 4-[4-Amino-5-(2,6-difluoro-benzoyl)-thiazol-2-ylamino]-benzenesulfonamide]	250 nM	560 nM	2.2 nM	710 nM	2200 nM	5.7 nM	1700 nM	2800 nM	+	+	1200 nM	3000 nM	280 nM	670 nM	13 nM	240 nM	580 nM	220 nM	590 nM	3900 nM	IC90 [13]: 13000 nM
CN1CCN(c2ccc(Nc3nc(N)c(C(=O)c4c(Cl)cc(C(F)(F)F)cc4Cl)s3)cc2)CC1 [C(81)]	10000 nM	20000 nM	1240 nM	3800 nM	> 5000 nM	872 nM	7900 nM	12000 nM	+	+	> 5000 nM	–	13000 nM	22000 nM	12.3 nM	> 5000 nM	–	4700 nM	9300 nM	3900 nM	IC90 [13]: 16000 nM
Nc1nc(Nc2ccc(N3CCNCC3)cc2)sc1C(=O)c1c(F)cccc1F [J(2), [4-Amino-2-(4-piperazin-1-yl-phenylamino)-thiazol-5-yl]-(2,6-difluoro-phenyl)-methanone]	300 nM	730 nM	405 nM	650 nM	2000 nM	135 nM	1700 nM	2800 nM	+	+	550 nM	1100 nM	580 nM	1300 nM	6.4 nM	900 nM	2700 nM	340 nM	700 nM	480 nM	IC90 [13]: 1700 nM
